Experimental data as given in patent US20160213499A1, “BIODEGRADABLE ENDOPROSTHESES AND METHODS FOR THEIR FABRICATION” (Elixir Medical Corporation, priority 2015, published 2016).

Test: Pharmacokinetic release profile of novolimus from a stent (FIG. 35)
Type: in vivo

SMILES: CO[C@@H]1C[C@H](C[C@@H](C)[C@@H]2CC(=O)[C@H](C)/C=C(\C)[C@@H](O)[C@@H](OC)C(=O)[C@H](C)C[C@H](C)/C=C/C=C/C=C(\C)[C@@H](O)C[C@@H]3CC[C@@H](C)[C@@](O)(O3)C(=O)C(=O)N3CCCC[C@H]3C(=O)O2)CC[C@H]1O [novolimus, 16-O-desmethyl-rapamycin]
- tissue drug concentration (at 90 days): 0.5 ng/mg
- drug released (in one month): over 85%
